Several values for one entry are separate records, joined by “and”; a condition that tells them apart may be missing. Equal values may be shown once.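 Dose response: 5 concentrations. Exposure: 48 h. Format: 96-well plates. Endpoint: linear interpolation; highest concentration if not reached. GI50 marks 50% less growth.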 Activity calls are given as the source filed them. Cut-off read from the data, not from the text of the source: active = GI50 up to about 1.1 µM and inactive = higher.
Legend:
Assay in all cases: DTP human tumour cell line panel, 48 h
K562 = system: K562
M14 = system: M14
EKVX = system: EKVX
IGROV-1 = system: IGROV-1
NCI-H522 = system: NCI-H522
UACC-62 = system: UACC-62
NCI-H460 = system: NCI-H460
HT-29 = system: HT-29
PC-3 = system: PC-3
UACC-257 = system: UACC-257
SF-539 = system: SF-539
RXF 393 = system: RXF 393
OVCAR-5 = system: OVCAR-5
SN12C = system: SN12C
SR = system: SR
BT-549 = system: BT-549
HL-60 = system: HL-60
HCT-116 = system: HCT-116
SNB-75 = system: SNB-75
COLO 205 = system: COLO 205
SF-295 = system: SF-295
RPMI-8226 = system: RPMI-8226
MOLT-4 = system: MOLT-4
MDA-MB-231 = system: MDA-MB-231
SW-620 = system: SW-620
SK-MEL-2 = system: SK-MEL-2
NCI/ADR-RES = system: NCI/ADR-RES
NCI-H23 = system: NCI-H23
SK-OV-3 = system: SK-OV-3
NCI-H226 = system: NCI-H226
MCF7 = system: MCF7
HCT-15 = system: HCT-15
T47D = system: T47D
CCRF-CEM = system: CCRF-CEM
TK-10 = system: TK-10
HOP-92 = system: HOP-92
DU-145 = system: DU-145
KM12 = system: KM12
A498 = system: A498
U-251 = system: U-251
OVCAR-8 = system: OVCAR-8
OVCAR-3 = system: OVCAR-3
CAKI-1 = system: CAKI-1
SK-MEL-28 = system: SK-MEL-28
UO-31 = system: UO-31
MDA-MB-435 = system: MDA-MB-435
SNB-19 = system: SNB-19
786-0 = system: 786-0
SK-MEL-5 = system: SK-MEL-5
HCC 2998 = system: HCC 2998

## CC1CCC2(NC1)OC1CC3C4CC=C5CC(O)CCC5(C)C4CCC3(C)C1C2C (centres undefined)
K562
  GI50: 14.9 µM (inactive)
M14
  GI50: 76.6 µM (inactive) and 42.1 µM (inactive)
EKVX
  GI50: 22.5 µM (inactive) and 37.4 µM (inactive)
IGROV-1
  GI50: 32.5 µM (inactive) and 35 µM (inactive)
NCI-H522
  GI50: 31.1 µM (inactive) and 22.4 µM (inactive)
UACC-62
  GI50: 27.2 µM (inactive) and 18.1 µM (inactive)
NCI-H460
  GI50: 25.9 µM (inactive) and 14.1 µM (inactive)
HT-29
  GI50: 24.1 µM (inactive) and 12.5 µM (inactive)
PC-3
  GI50: 22.7 µM (inactive) and 34.9 µM (inactive)
UACC-257
  GI50: 55.8 µM (inactive) and 49.1 µM (inactive)
SF-539
  GI50: 17.3 µM (inactive) and 10.9 µM (inactive)
RXF 393
  GI50: 25.2 µM (inactive) and 16.8 µM (inactive)
OVCAR-5
  GI50: 39.1 µM (inactive) and 40.3 µM (inactive)
SN12C
  GI50: 15 µM (inactive) and 22.8 µM (inactive)
SR
  GI50: 4 µM (inactive) and 2.87 µM (inactive)
BT-549
  GI50: 32.8 µM (inactive) and 48.5 µM (inactive)
HL-60
  GI50: 15.1 µM (inactive) and 11.6 µM (inactive)
HCT-116
  GI50: 18.8 µM (inactive) and 9.86 µM (inactive)
SNB-75
  GI50: 4.72 µM (inactive)
COLO 205
  GI50: 58.5 µM (inactive) and 40.6 µM (inactive)
SF-295
  GI50: 24.9 µM (inactive) and 18.7 µM (inactive)
RPMI-8226
  GI50: 20.6 µM (inactive) and 10.9 µM (inactive)
MOLT-4
  GI50: 18.3 µM (inactive) and 18.6 µM (inactive)
MDA-MB-231
  GI50: 12.8 µM (inactive) and 24.9 µM (inactive)
SW-620
  GI50: 18.5 µM (inactive) and 27.8 µM (inactive)
SK-MEL-2
  GI50: 29.9 µM (inactive) and 19.5 µM (inactive)
NCI/ADR-RES
  GI50: 13.2 µM (inactive) and 14.4 µM (inactive)
NCI-H23
  GI50: 39.4 µM (inactive) and 37.1 µM (inactive)
SK-OV-3
  GI50: 24.8 µM (inactive) and 15.7 µM (inactive)
NCI-H226
  GI50: 54 µM (inactive) and 27.8 µM (inactive)
MCF7
  GI50: 23.2 µM (inactive) and 42.9 µM (inactive)
HCT-15
  GI50: 32.5 µM and 38.8 µM
T47D
  GI50: 23.4 µM (inactive) and 17.5 µM (inactive)
CCRF-CEM
  GI50: 12.4 µM (inactive) and 15.2 µM (inactive)
TK-10
  GI50: 12.4 µM (inactive) and 20.4 µM (inactive)
HOP-92
  GI50: 19.5 µM (inactive) and 17.5 µM (inactive)

## O=S(=O)(O)c1ccc2c(/N=N/c3ccccc3)c(O)ccc2c1
DU-145
  GI50: > 100 µM (inactive)
KM12
  GI50: > 100 µM (inactive)
M14
  GI50: > 100 µM (inactive)
EKVX
  GI50: > 100 µM (inactive)
IGROV-1
  GI50: > 100 µM (inactive)
A498
  GI50: > 100 µM (inactive)
NCI-H460
  GI50: > 100 µM (inactive)
U-251
  GI50: > 100 µM (inactive)
OVCAR-8
  GI50: > 100 µM (inactive)
UACC-257
  GI50: > 100 µM (inactive)
OVCAR-3
  GI50: > 100 µM (inactive)
CAKI-1
  GI50: > 100 µM (inactive)
SF-539
  GI50: > 100 µM (inactive)
SK-MEL-28
  GI50: > 100 µM (inactive)
RXF 393
  GI50: > 100 µM (inactive)
OVCAR-5
  GI50: > 100 µM (inactive)
SN12C
  GI50: > 100 µM (inactive)
SR
  GI50: > 100 µM (inactive)
BT-549
  GI50: > 100 µM (inactive)
HL-60
  GI50: > 100 µM (inactive)
HCT-116
  GI50: > 100 µM (inactive)
SNB-75
  GI50: > 100 µM (inactive)
UO-31
  GI50: > 100 µM (inactive)
COLO 205
  GI50: > 100 µM (inactive)
MDA-MB-435
  GI50: > 100 µM (inactive)
SNB-19
  GI50: > 100 µM (inactive)
MOLT-4
  GI50: > 100 µM (inactive)
SW-620
  GI50: > 100 µM (inactive)
SK-MEL-2
  GI50: > 100 µM (inactive)
SK-OV-3
  GI50: > 100 µM (inactive)
MCF7
  GI50: > 100 µM (inactive)
HCT-15
  GI50: > 100 µM
786-0
  GI50: > 100 µM (inactive)
T47D
  GI50: > 100 µM (inactive)
CCRF-CEM
  GI50: > 100 µM (inactive)
SK-MEL-5
  GI50: > 100 µM (inactive)
HCC 2998
  GI50: > 100 µM (inactive)
HOP-92
  GI50: > 100 µM (inactive)
